For series [1], the target named is T1, 5-HT3 receptor subtypes derived from N1E-115 cells (Mus musculus, UniProt P23979).
T1 construct: 5-HT3 receptor subtypes derived from N1E-115 cells; host or cells: N1E-115 cells
T1 sequence (P23979 24-489): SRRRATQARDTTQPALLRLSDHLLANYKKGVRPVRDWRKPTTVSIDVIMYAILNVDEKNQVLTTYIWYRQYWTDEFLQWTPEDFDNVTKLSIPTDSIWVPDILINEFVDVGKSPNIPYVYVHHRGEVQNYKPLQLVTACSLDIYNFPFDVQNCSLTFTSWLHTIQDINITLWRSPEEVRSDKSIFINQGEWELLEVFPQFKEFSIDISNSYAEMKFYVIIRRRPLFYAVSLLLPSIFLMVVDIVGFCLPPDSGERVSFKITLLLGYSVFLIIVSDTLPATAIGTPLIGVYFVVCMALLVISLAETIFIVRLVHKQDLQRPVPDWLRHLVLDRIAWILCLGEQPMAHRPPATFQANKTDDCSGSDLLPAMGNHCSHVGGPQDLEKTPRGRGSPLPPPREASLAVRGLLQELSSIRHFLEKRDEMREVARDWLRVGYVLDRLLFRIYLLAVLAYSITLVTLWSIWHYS
The experiment in a line: Receptor binding, 5-HT3 receptor (radioligand binding, Cerep). As to conditions: ratio of IC50 at 5-HT3 to IC50 at 5-HT4. How it is done: Receptor Binding 5-HT3 Receptor
Following incubation with the appropriate ligands, the preparations were rapidly filtered under vacuum through GF/B glass fiber filters and washed with ice-old buffer using a Brandel or Packard cell harvester.
Specific radioligand binding to the receptor was defined as the difference between total binding and nonspecific binding determined in the presence of an excess of unlabeled ligand. Results were expressed as a percent inhibition of specific binding obtained in the presence of the compounds.

For series [2] the following is noted: co-administration with ketoconazole; inhibition of the metabolic elimination of cisapride; cited from earlier work.

The structures appear in SMILES notation.

For the compound `COc1cc(N)c(Cl)cc1C(=O)NC1CCNCC1OC` (racemic) [(±) Norcisapride, 4-amino-5-chloro-N-(3-methoxy-4-piperidinyl)-2-methoxybenzamide], the “5-HT3/5-HT4 Ratio” value in series [1] is given as 0.012.
Still for that read-out and setting: under `COc1cc(N)c(Cl)cc1C(=O)NC1CCNCC1OC` (single isomer, unassigned; (+)) [(+) Norcisapride] stands 0.014.
Take `COc1cc(N)c(Cl)cc1C(=O)N[C@H]1CCN(CCCOc2ccc(F)cc2)C[C@H]1OC` (racemic) [(±) Cisapride, cis-4-amino-5-chloro-N-[1-[3-(4-fluorophenoxy)propyl]-3-methoxy-4-piperidinyl]-2-methoxybenzamide]: in series [2], the “increase of the steady-state plasma levels” value is given as 8 fold.
In the case of `COc1cc(N)c(Cl)cc1C(=O)NC1CCNCC1OC` (single isomer, unassigned; (-)) [(−) Norcisapride], the “5-HT3/5-HT4 Ratio” value in series [1] is reported as 0.023.

The record behind these values is patent US6552045B2 (Sepracor Inc., priority 1999, dated 2003).
